What all share (experiment): biochemical
For one assay, the target named is T1, MMP-13 (Homo sapiens, UniProt P45452).
T1 construct: made in house; host or cells: baculovirus / insect cells
Conditions: for pIC50: read-out: MMP-13 IC50. The gist of the method:
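APMA- or trypsin-activated enzymes were preincubated with inhibitor for 5 min at room temperature, then the fluorogenic substrate MCA-Pro-Leu-Gly-Leu-Dpa-Ala-Arg-NH2 was added to a final 4 μM.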

A further assay concerns the target T2, MMP-2 (Homo sapiens, UniProt P08253).
T2 construct: made in house; provided by Dr. Gregory Goldberg, Washington University
T2 sequence (P08253 110-660): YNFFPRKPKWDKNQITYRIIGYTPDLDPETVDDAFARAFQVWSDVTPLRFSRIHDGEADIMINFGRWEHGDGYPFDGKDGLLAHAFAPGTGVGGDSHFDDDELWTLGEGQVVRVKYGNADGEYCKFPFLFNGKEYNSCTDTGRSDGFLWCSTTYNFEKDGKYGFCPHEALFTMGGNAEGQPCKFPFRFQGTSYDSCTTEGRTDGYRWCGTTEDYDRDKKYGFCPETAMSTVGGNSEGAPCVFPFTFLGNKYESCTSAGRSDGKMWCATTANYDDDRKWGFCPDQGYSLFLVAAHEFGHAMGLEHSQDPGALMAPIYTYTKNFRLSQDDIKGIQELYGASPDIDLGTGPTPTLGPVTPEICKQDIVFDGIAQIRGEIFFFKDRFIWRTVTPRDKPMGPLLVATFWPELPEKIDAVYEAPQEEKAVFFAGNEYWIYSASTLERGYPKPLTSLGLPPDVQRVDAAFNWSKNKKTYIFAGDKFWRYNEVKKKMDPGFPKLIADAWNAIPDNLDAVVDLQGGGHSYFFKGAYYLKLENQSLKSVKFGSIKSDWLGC
The settings on record: for pIC50: read-out: MMP-2 IC50; for IC50: MMP-2 IC50 (nM). The method in brief: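 Assay buffer 100 mM Tris-HCl, 100 mM NaCl, 10 mM CaCl2, pH 7.5. Activated MMP + inhibitor, 5 min RT; then methoxycoumarin peptide substrate, 4 μM final. Readout fluorescence; IC50 calculated.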

The target of the next assay is T3, MMP-1 (Homo sapiens, UniProt P03956).
T3 construct: made in house; host or cells: transfected HT-1080 cells (provided by Dr. Harold Welgus, Washington University)
T3 sequence (P03956 100-469): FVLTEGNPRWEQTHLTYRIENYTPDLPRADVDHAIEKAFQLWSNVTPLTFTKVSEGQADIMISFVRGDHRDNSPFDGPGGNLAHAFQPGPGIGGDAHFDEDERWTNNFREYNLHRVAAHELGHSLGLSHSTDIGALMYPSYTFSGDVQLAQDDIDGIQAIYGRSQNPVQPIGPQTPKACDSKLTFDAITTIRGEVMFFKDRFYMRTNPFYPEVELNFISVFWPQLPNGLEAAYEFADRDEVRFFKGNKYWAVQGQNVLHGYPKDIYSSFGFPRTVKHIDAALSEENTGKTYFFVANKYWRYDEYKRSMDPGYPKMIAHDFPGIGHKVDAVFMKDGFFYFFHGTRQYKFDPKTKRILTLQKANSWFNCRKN
The method in brief:
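APMA- or trypsin-activated human MMPs (MMP-1 from transfected HT-1080 cells, MMP-2 from transfected cells) preincubated with inhibitor in 1% DMSO at room temperature, then 4 μM MCA-Pro-Leu-Gly-Leu-Dpa-Ala-Arg-NH2 added in Tris/NaCl/CaCl2 buffer pH 7.5. IC50 from fluorescence reduction versus inhibitor concentration.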

Setting [1] is: recombinant human MMP-13, MCA peptide substrate 4 μM, pH 7.5, room temperature.
[2] abbreviates: recombinant human MMP-2, MCA peptide substrate 4 μM, pH 7.5, room temperature.
The mark [3] stands for this setting: recombinant human MMP-1, MCA peptide substrate 4 μM, pH 7.5, room temperature, read-out: MMP-1 IC50.

pIC50: −log10 of the molar value. Structures can show the parent of a compound that is named as a salt. Where two headings read alike, the source gives them in different places. Bounds are passed on as bounds.

With `COCCN1CCC(C(=O)NO)(S(=O)(=O)c2ccc(N3CCC(C(=O)NCc4ccccc4)CC3)cc2)CC1` [Example 247, N-Hydroxy-1-(2-methoxyethyl)-4-[[4-[4-[[(phenylmethyl)amino]carbonyl]-1-piperidinyl]phenyl]-sulfonyl]-4-piperidinecarboxamide, Monohydrochloride], the pIC50 on MMP-13 (setting [1]) is 7.46; on MMP-2 (setting [2]), 5.80; at MMP-1 (setting [3]), under 5.00.
Regarding `CCOC1CCN(c2ccc(S(=O)(=O)C3(C(=O)NO)CCOCC3)cc2)CC1` [Example 166], the results for the pIC50 on MMP-13 (setting [1]), at MMP-2 (setting [2]) and at MMP-1 (setting [3]) were 7.49, 6.62 and under 5.00, respectively.
For the compound `O=C(NO)C1(S(=O)(=O)c2ccc(Oc3ccc(OC(F)(F)F)cc3)cc2)CCN(C(=S)NCCN2CCCCC2)CC1` [Example 200], the results for the pIC50 at MMP-13 (setting [1]), on MMP-2 (setting [2]) and on MMP-1 (setting [3]) were 9.70, over 10.00 and 5.52, respectively.
The matching figures for `O=C(NO)C1(S(=O)(=O)c2ccc(N3CCC(OCc4ccc(COCC5CCCCC5)cc4)CC3)cc2)CCOCC1` [Example 604]: 7.70, 5.60 and under 5.00.
For the compound `COc1ccc(S(=O)(=O)N2CCCN(c3ccc(S(=O)(=O)C4(C(=O)NO)CCOCC4)cc3)CC2)cc1` [Example 698], the pIC50 at MMP-13 (setting [1]) is 7.77; at MMP-2 (setting [2]), 6.15; at MMP-1 (setting [3]), under 5.00.
In the case of `COc1ccc(Oc2ccc(S(=O)(=O)C3(C(=O)NO)CCS(=O)(=O)CC3)cc2)cc1` [Example 156], the pIC50 at MMP-13 is 8.66; at MMP-2 it was 9.35; at MMP-1 (read-out: MMP-1 IC50), under 5.00.
Consider `Cc1cccc(N2CCN(c3ccc(S(=O)(=O)C4(C(=O)NO)CCOCC4)cc3)CC2)c1C` [Example 490], for which the pIC50 at MMP-13 (setting [1]) is 7.21; on MMP-2 (setting [2]) it was 5.52; at MMP-1 (setting [3]) it was under 5.00.
Taken in the same sequence, the figures for `CC1CC(C)CN(C(=O)C2CCN(c3ccc(S(=O)(=O)C4(C(=O)NO)CCN(C(=O)CNCCc5c[nH]cn5)CC4)cc3)CC2)C1` (stereo not drawn) [Example 281] were 6.98, under 5.00 and under 5.00.
For the compound `O=C(C1CCN(c2ccc(S(=O)(=O)C3(C(=O)NO)CCOCC3)cc2)CC1)N1CCN(c2cnccn2)CC1` [Example 40], the half-maximal inhibitory concentration (IC50) on MMP-13 (MMP-13 IC50 (nM), recombinant human MMP-13, MCA peptide substrate 4 μM, pH 7.5, room temperature) is 26.8 nM; against MMP-2 it was 900 nM. On MMP-1 (read-out: MMP-1 IC50), the pIC50 is under 5.00.
As to `C[C@H]1C[C@H](C)CN(C(=O)C2CCN(c3ccc(S(=O)(=O)C4(C(=O)NO)CCN(C(=O)OC(C)(C)C)CC4)cc3)CC2)C1` (relative stereo) [Example 239, rel-1,1-Dimethylethyl 4-[[4-[4-[[(3R,5R)-3,5-Dimethyl-1-piperidinyl]carbonyl]-1-piperidinyl]-phenyl]sulfonyl]-4-[(hydroxyamino)carbonyl]-1-piperidinecarboxylate], the pIC50 on MMP-13 is 8.05; at MMP-2, 5.08; at MMP-1 (read-out: MMP-1 IC50), under 5.00.
With `COCCN1CCC(C(=O)NO)(S(=O)(=O)c2ccc(N3CCC(C(=O)Nc4cccc(OC(F)(F)F)c4)CC3)cc2)CC1` [Example 249, N-Hydroxy-1-(2-methoxyethyl)-4-[[4-[4-[[[3-(trifluoromethoxy)phenyl]amino]carbonyl]-1-piperidinyl]phenyl]sulfonyl]-4-piperidinecarboxamide, Monohydrochloride], the pIC50 at MMP-13 (setting [1]) is 7.89; at MMP-2 (setting [2]), 6.63; at MMP-1 (setting [3]), under 5.00.
As for `CC1CC(C)CN(C(=O)C2CCN(c3ccc(S(=O)(=O)C4(C(=O)NO)CCN(C(=O)CN5CCN(C)CC5)CC4)cc3)CC2)C1` (stereo not drawn) [Example 288], the values for the pIC50 at MMP-13 (setting [1]), at MMP-2 (setting [2]) and on MMP-1 (setting [3]) were 7.46, under 5.00 and under 5.00, respectively.
Take `O=C(CCCCNCc1ccccn1)N1CCC(C(=O)NO)(S(=O)(=O)c2ccc(Oc3ccc(C(F)(F)F)cc3)cc2)CC1` [Example 336]: the pIC50 on MMP-13 (setting [1]) was 9.00; at MMP-2 (setting [2]) it was over 10.00; on MMP-1 (setting [3]) it was under 5.00.
On to `O=C(NO)C1(S(=O)(=O)c2ccc(N3CCC(Nc4ccccc4O)CC3)cc2)CCOCC1` [Example 842], for which the negative logarithm of the IC50 (pIC50) is 8.26 at MMP-13 (setting [1]), 7.34 on MMP-2 (setting [2]) and under 5.00 at MMP-1 (setting [3]).
For `COc1ccc(C(=O)N2CCN(c3ccc(S(=O)(=O)C4(C(=O)NO)CCOCC4)cc3)CC2)cc1` [Example 594], the pIC50 at MMP-13 (setting [1]) is 6.24; at MMP-1 it was under 5.00. The same compound yielded a half-maximal inhibitory concentration (IC50) at MMP-2 of 650 nM.
`CC1CN(c2ccc(S(=O)(=O)C3(C(=O)NO)CCOCC3)cc2)CCC1OCc1ccccc1` (stereo not drawn) [Example 581]: the pIC50 at MMP-13 (setting [1]) is 7.57; at MMP-2 (setting [2]), 6.32; on MMP-1 (setting [3]) it was under 5.00.
For `CC1CC(C)CN(C(=O)C2CCN(c3ccc(S(=O)(=O)C4(C(=O)NO)CCN(C(=O)CNCCOCCO)CC4)cc3)CC2)C1` (stereo not drawn) [Example 301], the pIC50 was 7.05 on MMP-13 (setting [1]), under 5.00 at MMP-2 (setting [2]) and under 5.00 on MMP-1 (setting [3]).
For the compound `O=C(CNCc1cccnc1)N1CCC(C(=O)NO)(S(=O)(=O)c2ccc(Oc3ccc(C(F)(F)F)cc3)cc2)CC1` [Example 316], the pIC50 on MMP-13 (setting [1]) is 9.40; at MMP-2 (setting [2]) it was 9.70; at MMP-1 (setting [3]) it was under 5.00.
With `CCCc1ccc(C(=O)C2CCN(c3ccc(S(=O)(=O)C4(C(=O)NO)CCOCC4)cc3)CC2)cc1` [Example 860], the negative-log IC50 (pIC50) is 8.57 on MMP-13 (setting [1]), 5.82 on MMP-2 (setting [2]) and under 5.00 on MMP-1 (setting [3]).
The matching figures for `CCCOC1CCN(c2ccc(S(=O)(=O)C3(C(=O)NO)CCOCC3)cc2)CC1` [Example 168]: 7.30, 6.55 and under 5.00.
Consider `CN(C)c1ccc(NC(=O)C2CCN(c3ccc(S(=O)(=O)C4(C(=O)NO)CCOCC4)cc3)CC2)cc1` [Example 78], for which the negative logarithm of the IC50 (pIC50) on MMP-13 (setting [1]) is 7.93; at MMP-2 (setting [2]), 6.14; on MMP-1 (setting [3]), under 5.00.
Taken in the same sequence, the figures for `Cc1cccc(OC2CCN(c3ccc(S(=O)(=O)C4(C(=O)NO)CCOCC4)cc3)CC2)c1` [Example 485] were 8.10, 8.38 and under 5.00.
The matching figures for `CCOCC1CCCN(c2ccc(S(=O)(=O)C3(C(=O)NO)CCOCC3)cc2)C1` (stereo not drawn) [Example 563]: 7.15, 6.63 and under 5.00.
In the case of `Cc1cccc(COC2CCC(Oc3ccc(S(=O)(=O)C4(C(=O)NO)CCOCC4)cc3)C2)c1` (stereo not drawn) [Example 706], the values for the pIC50 at MMP-13 (setting [1]), on MMP-2 (setting [2]) and on MMP-1 (setting [3]) were 8.37, 7.40 and under 5.00, respectively.
The matching figures for `O=C(NO)C1(S(=O)(=O)c2ccc(N3CCN(S(=O)(=O)c4cccs4)CC3)cc2)CCOCC1` [Example 685]: 8.52, 7.46 and under 5.00.
On to `Cn1c(=O)n(C2CCN(c3ccc(S(=O)(=O)C4(C(=O)NO)CCOCC4)cc3)CC2)c2ccccc21` [Example 589], for which the pIC50 at MMP-13 (setting [1]) was 7.15; on MMP-2 (setting [2]) it was under 5.00; on MMP-1 (setting [3]), under 5.00.
In the case of `O=C(Nc1cccc(Cl)c1)C1CCN(c2ccc(S(=O)(=O)C3(C(=O)NO)CCOCC3)cc2)CC1` [Example 70], the values for the negative logarithm of the IC50 (pIC50) on MMP-13 (setting [1]), at MMP-2 (setting [2]) and on MMP-1 (setting [3]) were 7.97, 6.15 and under 5.00, respectively.
For the compound `COc1ccccc1C1CCN(c2ccc(S(=O)(=O)C3(C(=O)NO)CCSCC3)cc2)CC1` [Example 153], the negative-log IC50 (pIC50) on MMP-13 was 7.30; at MMP-2, 5.30; at MMP-1 (read-out: MMP-1 IC50), under 5.00.

Values taken from patent US6750228B1, “Aromatic sulfone hydroxamic acid metalloprotease inhibitor” (priority 1997, dated 2004).
